Paper PMC6254154 (Molecules, 2009)

Columns and labels:
[1] = system: hyaluronidase of CR venom; experiment: Inhibition of hyaluronidase activity of CR venom (turbidimetric); assay type: biochemical, Calloselasma rhodostoma; conditions: CR venom 250 µg; pre-incubated 30 min at 37 °C; mean ± S.E.M. (n = 2)
Method: (§1) Hyaluronidase activity was determined according to the methods of Ferrante and Yingprasertchai et al. with slight modification. CR or NK venom (25-1,000 µg) in PBS (pH 7.4) was incubated with hyaluronic acid (50 μg) in 0.2 M sodium acetate buffer (1 mL, pH 5) that contained 0.15 M NaCl for 25 min at 37 °C. The reaction was stopped by adding 2.5% cetyltrimethylammonium bromide in 2% NaOH (2 mL). The optical density at 400 nm of each sample was read after 30 min with a Shimadzu UV-VIS spectrophotometer UV-160A against blank. Turbidity-reducing activity was expressed as the percentage of the remaining hyaluronic acid, taking the absorbance of a tube to which no enzyme was added as 100%. The venom concentration that produced a reduction in turbidity of ~50% was used in inhibition experiments. […] Blanks containing only the buffer and test sample were run in parallel. The anti-hyaluronidase potential of the extract and its phenolic principles was presented as percent inhibition of the enzymatic activity versus dose. ED50, the effective dose that hyaluronidase activity of the venoms was reduced by 50%, was calculated.

PLA2 of CR venom = experiment: Inhibition of PLA2 activity of CR venom (indirect hemolytic assay on agarose-erythrocyte-egg yolk gel plates); assay type: biochemical, Calloselasma rhodostoma; conditions: CR venom 17.1 µg (one MIHD); pre-incubated 1 h at 37 °C; mean ± S.E.M. (n = 2)
Method: (§2) PLA2 activity in CR and NK venoms was measured using an indirect hemolytic assay on agarose-erythrocyte-egg yolk gel plates to define the minimum indirect hemolytic dose (MIHD), the dose of venom that induced a hemolysis halo of 20 mm diameter after incubation for 20 h at 37 °C. The inhibition of PLA2 activity by MSKE and its isolated phenolic principles was determined against one MIHD of CR and NK venoms. Test solutions and the venoms (0.05 mL each) were pre-incubated for 1 h at 37 °C. After centrifugation at 10,000 rpm for 10 min, the supernatant (20 µL) was tested for PLA2 activity. The anti-PLA2 potential of the extract and its phenolic principles was presented as percent inhibition of the enzymatic activity versus dose, in which 100% inhibition should produce no clear zone. ED50, the effective dose that PLA2 activity of the venoms was reduced by 50%, was calculated.

[2] = system: hyaluronidase of NK venom; experiment: Inhibition of hyaluronidase activity of NK venom (turbidimetric); assay type: biochemical, Naja naja kaouthia; conditions: NK venom 250 µg; pre-incubated 30 min at 37 °C; mean ± S.E.M. (n = 2)
Method: as §1

LAAO of NK venom = experiment: Inhibition of LAAO activity of NK venom (enzyme-coupled assay); assay type: biochemical, Naja naja kaouthia; conditions: NK venom 50 µg; pre-incubated 1 h at 37 °C; mean ± S.E.M. (n = 2)
Method: (§3) LAAO activity of CR and NK venoms was determined by using an enzyme-coupled assay. The assay mixture contained 0.025 mL 0.014% peroxidase and 0.2 M triethanolamine buffer (1 mL, pH 7.6) that contained 0.1% L-leucine and 0.0065% o-dianisidine. After incubation at 25 °C for 3 min, 0.1 mL CR or NK venom in PBS (1 mg/mL) was added, and an increase in absorbance at 436 nm (Shimadzu UV-VIS spectrophotometer UV-160A) was measured against blank. Enzymatic activity was calculated from the linear portion of the time–absorbance plot, where one unit of enzymatic activity was defined as the amount of enzyme that caused an increase of 0.001 absorbance units per minute. The percent inhibition of LAAO activity by MSKE and its isolated phenolic principles was evaluated by pre-incubating CR or NK venom (0.1 mL, 1 mg/mL) with test sample in sterile water for injection (SWI) (0.1 mL) for 1 h at 37 °C. After pre-incubation, the mixture was centrifuged at 10,000 rpm for 5 min, and supernatant (0.1 mL) was evaluated for LAAO activity. Venoms, test sample, and solvents alone were used as controls. The anti-LAAO potential of the extract and its phenolic principles was presented as percent inhibition of the enzymatic activity versus dose. ED50, the effective dose that LAAO activity of the venoms was reduced by 50%, was calculated.

PLA2 of NK venom = experiment: Inhibition of PLA2 activity of NK venom (indirect hemolytic assay on agarose-erythrocyte-egg yolk gel plates); assay type: biochemical, Naja naja kaouthia; conditions: NK venom 3.4 µg (one MIHD); pre-incubated 1 h at 37 °C; mean ± S.E.M. (n = 2)
Method: as §2

LAAO of CR venom = biological target: T1, LAAO of CR venom (Calloselasma rhodostoma, UniProt P81382); experiment: Inhibition of LAAO activity of CR venom (enzyme-coupled assay); assay type: biochemical; conditions: CR venom 50 µg; pre-incubated 1 h at 37 °C; mean ± S.E.M. (n = 2)
T1 construct: from tissue; host or cells: crude snake venom (CR)
Method: as §3

T1 sequence (P81382 19-516): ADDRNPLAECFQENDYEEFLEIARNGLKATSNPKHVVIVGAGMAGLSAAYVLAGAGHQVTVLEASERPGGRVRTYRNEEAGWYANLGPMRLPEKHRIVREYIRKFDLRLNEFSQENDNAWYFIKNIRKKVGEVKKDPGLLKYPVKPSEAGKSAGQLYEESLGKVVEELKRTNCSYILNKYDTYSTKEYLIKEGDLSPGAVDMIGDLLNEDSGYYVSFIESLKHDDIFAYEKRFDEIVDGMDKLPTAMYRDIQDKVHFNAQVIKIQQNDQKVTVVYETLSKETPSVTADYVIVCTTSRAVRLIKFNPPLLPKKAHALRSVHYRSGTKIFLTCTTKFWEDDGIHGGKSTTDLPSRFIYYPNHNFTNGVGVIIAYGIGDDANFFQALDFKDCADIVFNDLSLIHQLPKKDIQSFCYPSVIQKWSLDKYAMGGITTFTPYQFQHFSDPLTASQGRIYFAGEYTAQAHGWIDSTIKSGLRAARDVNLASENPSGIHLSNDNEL

| SMILES | Hyaluronidase (ED50, µg) CR venom [1] [µg] | PLA2 (ED50, µg) CR venom (PLA2 of CR venom) [µg] | Hyaluronidase (ED50, µg) NK venom [2] [µg] | LAAO (ED50, µg) NK venom (LAAO of NK venom) [µg] | PLA2 (ED50, µg) NK venom (PLA2 of NK venom) [µg] | LAAO (ED50, µg) CR venom (LAAO of CR venom) [µg] |
| --- | --- | --- | --- | --- | --- | --- |
| O=C(OC[C@H]1O[C@@H](OC(=O)c2cc(O)c(O)c(O)c2)[C@H](OC(=O)c2cc(O)c(O)c(O)c2)[C@@H](OC(=O)c2cc(O)c(O)c(O)c2)[C@@H]1OC(=O)c1cc(O)c(O)c(O)c1)c1cc(O)c(O)c(O)c1 [PGG, 1,2,3,4,6-penta-O-galloyl-β-D-glucopyranose] | 3.4 ± 2.4 | 25.6 ± 1.3 | 2.6 ± 1.7 | 2.2 ± 2.0 | 30.2 ± 2.4 | 0.9 ± 2.4 |
| COC(=O)c1cc(O)c(O)c(O)c1 [MG, methyl gallate] | 5.9 ± 2.4 | 42.9 ± 2.3 | 8.6 ± 2.1 | 4.4 ± 2.0 | 108.7 ± 2.0 | 2.3 ± 2.4 |
| O=C(O)c1cc(O)c(O)c(O)c1 [GA, gallic acid] | 16.0 ± 2.5 | 66.0 ± 2.5 | 14.8 ± 1.4 | 4.5 ± 2.8 | 123.5 ± 2.5 | 1.7 ± 3.4 |
